From ChEMBL document CHEMBL3864146, “5-Alkyloxytryptamines are membrane-targeting, broad-spectrum antibiotics” (Bioorg Med Chem Lett, 2016)
≈ marks a conversion by molar mass, not a printed value.

How the values were obtained:
Escherichia coli [1] = experiment: Adjuvant activity assessed as potentiation of ciprofloxacin-induced antibacterial activity against Escherichia coli BW25113 at 0.25 times MIC after 16 to 18 hrs by checkerboard assay (reference value: 13 ng/ml); type: functional
Escherichia coli [2] = experiment: Adjuvant activity assessed as potentiation of rifampicin-induced antibacterial activity against Escherichia coli BW25113 at 0.5 times MIC after 16 to 18 hrs by checkerboard assay (reference value: 8 ng/ml); type: functional
Morganella morganii = experiment: Antibacterial activity against Morganella morganii after 16 to 18 hrs by micro-dilution method; type: functional
Vibrio cholerae = experiment: Antibacterial activity against Vibrio cholerae after 16 to 18 hrs by micro-dilution method; type: functional
Escherichia coli [3] = experiment: Adjuvant activity assessed as potentiation of ciprofloxacin-induced antibacterial activity against Escherichia coli BW25113 at 0.5 times MIC after 16 to 18 hrs by checkerboard assay (reference value: 13 ng/ml); type: functional
Bacillus subtilis = experiment: Antibacterial activity against Bacillus subtilis 168 after 16 to 18 hrs by micro-dilution method; type: functional; details: subsp. subtilis str. 168
Escherichia coli [4] = experiment: Antibacterial activity against Escherichia coli BW25113 after 16 to 18 hrs by micro-dilution method; type: functional
Salmonella typhimurium [5] = experiment: Antibacterial activity against Salmonella typhimurium after 16 to 18 hrs by micro-dilution method; type: functional, Salmonella enterica subsp. enterica serovar Typhimurium; details: Salmonella enterica
Escherichia coli [6] = experiment: Adjuvant activity assessed as potentiation of chloramphenicol-induced antibacterial activity against Escherichia coli BW25113 at 0.5 times MIC after 16 to 18 hrs by checkerboard assay (reference value: 8 ng/ml); type: functional
Escherichia coli [7] = experiment: Antibacterial activity against tolC-deficient Escherichia coli BW25113 after 16 to 18 hrs by micro-dilution method; type: functional
Klebsiella aerogenes = experiment: Antibacterial activity against Enterobacter aerogenes after 16 to 18 hrs by micro-dilution method; type: functional
[8] = Cytotoxicity against HEK cells assessed as cell viability at 0.65 ug/ml after 48 hrs by CellTiter-Glo assay relative to control; type: toxicity, cell-based, HEK293; details: human, read-out: Activity
Edwardsiella tarda = experiment: Antibacterial activity against Edwardsiella tarda after 16 to 18 hrs by micro-dilution method; type: functional
[9] = Cytotoxicity against HEK cells assessed as cell viability at 0.65 ug/ml after 24 hrs by CellTiter-Glo assay relative to control; type: toxicity, cell-based, HEK293; details: human, read-out: Activity
Klebsiella pneumoniae [10] = experiment: Antibacterial activity against Klebsiella pneumoniae after 16 to 18 hrs by micro-dilution method; type: functional
Staphylococcus aureus [11] = experiment: Antibacterial activity against Staphylococcus aureus after 16 to 18 hrs by micro-dilution method; type: functional
[12] = Cytotoxicity against HEK cells assessed as cell viability at 2.6 ug/ml after 24 hrs by CellTiter-Glo assay relative to control; type: toxicity, cell-based, HEK293; details: human, read-out: Activity
[13] = Cytotoxicity against HEK cells assessed as cell viability at 2.6 ug/ml after 48 hrs by CellTiter-Glo assay relative to control; type: toxicity, cell-based, HEK293; details: human, read-out: Activity
[14] = Cytotoxicity against HEK cells assessed as cell viability at 1.3 ug/ml after 24 hrs by CellTiter-Glo assay relative to control; type: toxicity, cell-based, HEK293; details: human, read-out: Activity
Escherichia coli [15] = experiment: Adjuvant activity assessed as potentiation of tetracycline-induced antibacterial activity against Escherichia coli BW25113 at 0.5 times MIC after 16 to 18 hrs by checkerboard assay (reference value: 2 ng/ml); type: functional
Shigella boydii = experiment: Antibacterial activity against Shigella boydii after 16 to 18 hrs by micro-dilution method; type: functional
Escherichia coli [16] = experiment: Adjuvant activity assessed as potentiation of chloramphenicol-induced antibacterial activity against Escherichia coli BW25113 at 0.25 times MIC after 16 to 18 hrs by checkerboard assay (reference value: 8 ng/ml); type: functional
Escherichia coli [17] = experiment: Adjuvant activity assessed as potentiation of rifampicin-induced antibacterial activity against Escherichia coli BW25113 at 0.25 times MIC after 16 to 18 hrs by checkerboard assay (reference value: 8 ng/ml); type: functional
Pseudomonas aeruginosa [18] = experiment: Antibacterial activity against Pseudomonas aeruginosa after 16 to 18 hrs by micro-dilution method; type: functional
Acinetobacter baumannii [19] = experiment: Antibacterial activity against Acinetobacter baumannii after 16 to 18 hrs by micro-dilution method; type: functional
Escherichia coli [20] = experiment: Adjuvant activity assessed as potentiation of tetracycline-induced antibacterial activity against Escherichia coli BW25113 at 0.25 times MIC after 16 to 18 hrs by checkerboard assay (reference value: 2 ng/ml); type: functional
[21] = Cytotoxicity against HEK cells assessed as cell viability at 1.3 ug/ml after 48 hrs by CellTiter-Glo assay relative to control; type: toxicity, cell-based, HEK293; details: human, read-out: Activity
Salmonella typhimurium [22] = experiment: Adjuvant activity assessed as potentiation of tetracycline-induced antibacterial activity against Salmonella typhimurium at 3.2 ug/ml after 16 to 18 hrs by checkerboard assay (reference value: 1 ug/ml); type: functional, Salmonella enterica subsp. enterica serovar Typhimurium; details: Salmonella enterica
[23] = Cytotoxicity against HEK cells assessed as cell viability at 0.8 ug/ml after 24 hrs by CellTiter-Glo assay relative to control; type: toxicity, cell-based, HEK293; details: human, read-out: Activity
[24] = Cytotoxicity against HEK cells assessed as cell viability at 0.8 ug/ml after 48 hrs by CellTiter-Glo assay relative to control; type: toxicity, cell-based, HEK293; details: human, read-out: Activity
Escherichia coli [25] = experiment: Induction of membrane permeabilization in Escherichia coli BW25113 at MIC after 15 mins by propidium iodide staining-based fluorescence microplate reader method relative to 50% ethanol; type: functional
Klebsiella pneumoniae [26] = experiment: Adjuvant activity assessed as potentiation of tetracycline-induced antibacterial activity against Klebsiella pneumoniae at 3.2 ug/ml after 16 to 18 hrs by checkerboard assay (reference value: 2 ug/ml); type: functional
[27] = Cytotoxicity against HEK cells assessed as cell viability at 3.2 ug/ml after 48 hrs by CellTiter-Glo assay relative to control; type: toxicity, cell-based, HEK293; details: human, read-out: Activity
[28] = Cytotoxicity against HEK cells assessed as cell viability at 1.6 ug/ml after 24 hrs by CellTiter-Glo assay relative to control; type: toxicity, cell-based, HEK293; details: human, read-out: Activity
Staphylococcus aureus [29] = experiment: Adjuvant activity assessed as potentiation of tetracycline-induced antibacterial activity against Staphylococcus aureus at 1.6 ug/ml after 16 to 18 hrs by checkerboard assay (reference value: 0.125 ug/ml); type: functional
Acinetobacter baumannii [30] = experiment: Adjuvant activity assessed as potentiation of tetracycline-induced antibacterial activity against Acinetobacter baumannii at 3.2 ug/ml after 16 to 18 hrs by checkerboard assay (reference value: 1 ug/ml); type: functional
Pseudomonas aeruginosa [31] = experiment: Adjuvant activity assessed as potentiation of tetracycline-induced antibacterial activity against Pseudomonas aeruginosa at 3.2 ug/ml after 16 to 18 hrs by checkerboard assay (reference value: 32 ug/ml); type: functional
[32] = Cytotoxicity against HEK cells assessed as cell viability at 1.6 ug/ml after 48 hrs by CellTiter-Glo assay relative to control; type: toxicity, cell-based, HEK293; details: human, read-out: Activity
[33] = Cytotoxicity against HEK cells assessed as cell viability at 3.2 ug/ml after 24 hrs by CellTiter-Glo assay relative to control; type: toxicity, cell-based, HEK293; details: human, read-out: Activity

SMILES	MIC (Escherichia coli [1])	MIC (Escherichia coli [2])	MIC (Morganella morganii)	MIC (Vibrio cholerae)	MIC (Escherichia coli [3])	MIC (Bacillus subtilis)	MIC (Escherichia coli [4])	MIC (Salmonella typhimurium [5])	MIC (Escherichia coli [6])	MIC (Escherichia coli [7])	MIC (Klebsiella aerogenes)	MIC (Edwardsiella tarda)	MIC (Klebsiella pneumoniae [10])	MIC (Staphylococcus aureus [11])	MIC (Escherichia coli [15])	MIC (Shigella boydii)	MIC (Escherichia coli [16])	MIC (Escherichia coli [17])	MIC (Pseudomonas aeruginosa [18])	MIC (Acinetobacter baumannii [19])	also measured
CCCCCCCCCOc1cccc(CCN)c1	0.025 µg/mL	0.002 µg/mL	11 µg/mL (≈ 41.8 µM)	5.3 µg/mL (≈ 20.1 µM)	0.025 µg/mL	0.66 µg/mL (≈ 2.51 µM)	5.3 µg/mL (≈ 20.1 µM)	5.3 µg/mL (≈ 20.1 µM)	0.004 µg/mL	2.6 µg/mL (≈ 9.87 µM)	5.3 µg/mL (≈ 20.1 µM)	5.3 µg/mL (≈ 20.1 µM)	5.3 µg/mL (≈ 20.1 µM)	5.3 µg/mL (≈ 20.1 µM)	0.001 µg/mL	5.3 µg/mL (≈ 20.1 µM)	0.008 µg/mL	0.004 µg/mL	21 µg/mL (≈ 79.7 µM)	5.3 µg/mL (≈ 20.1 µM)	viability at 48 h, 0.65 ug/ml [8]: 58.1%; viability at 24 h, 0.65 ug/ml [9]: 72.7%; viability at 24 h, 2.6 ug/ml [12]: 3.4%; viability at 48 h, 2.6 ug/ml [13]: 1.8%; viability at 24 h, 1.3 ug/ml [14]: 60.5%; MIC (Escherichia coli [20]): 0.002 µg/mL; viability at 48 h, 1.3 ug/ml [21]: 31%
CCCCCCCCCCOc1ccc2[nH]cc(CCN)c2c1.Cl	0.013 µg/mL	0.001 µg/mL	101 µg/mL	6.3 µg/mL	0.013 µg/mL	1.6 µg/mL	6.3 µg/mL	6.3 µg/mL	0.002 µg/mL	3.2 µg/mL	13 µg/mL	25 µg/mL	6.3 µg/mL	3.2 to 6.3 µg/mL	0.00025 µg/mL	3.2 µg/mL	0.004 µg/mL	0.008 µg/mL	> 101 µg/mL	6.3 µg/mL	MIC (Salmonella typhimurium [22]): 0.016 µg/mL; viability at 24 h, 0.8 ug/ml [23]: 59.7%; viability at 48 h, 0.8 ug/ml [24]: 39.1%; Activity (Escherichia coli [25]): 83%; MIC (Klebsiella pneumoniae [26]): 2 µg/mL; viability at 48 h, 3.2 ug/ml [27]: 2%; viability at 24 h, 1.6 ug/ml [28]: 29.6%; MIC (Staphylococcus aureus [29]): 0.001 µg/mL; MIC (Acinetobacter baumannii [30]): 0.25 µg/mL; MIC (Pseudomonas aeruginosa [31]): 16 µg/mL; viability at 48 h, 1.6 ug/ml [32]: 17%; viability at 24 h, 3.2 ug/ml [33]: 13.4%; MIC (Escherichia coli [20]): 0.001 µg/mL
